Laboratory results published in ChEMBL document CHEMBL5634105, “Novel chlorin e6-based conjugates of tyrosine kinase inhibitors: Synthesis and photobiological evaluation as potent photosensitizers for photodynamic therapy” (Eur J Med Chem, 2023).

Test: Drug accumulation in human HepG2 cells assessed as subcellular localization in endoplasmic reticulum at 5 uM incubated for 24 hrs by ER-tracker green probe based spectral confocal microscopic analysis
Format: ADME, cell-based
Conditions: hepg2, 24 h; call rule not given here

C=Cc1c(C)c2cc3nc(c(CC(=O)NCCOCCOCCOCCC(=O)OCCN4CCN(c5cc(Nc6ncc(C(=O)Nc7c(C)cccc7Cl)s6)nc(C)n5)CC4)c4[nH]c(cc5nc(cc1[nH]2)C(C)=C5CC)c(C)c4C(=O)O)[C@@H](CCC(=O)O)[C@@H]3C
Drug uptake: Active
